Reference: patent US9642854B2, “Flavanoid compounds and process for preparation thereof” (Council of Scientific & Industrial Research, priority 2009, dated 2017)
Values after ≈ are worked out from the molar mass of the structure shown. Where two headings read alike, the source gives them in different places.

Experiments:
H. pylori [1] = test: Anti H. pylori screening by disc diffusion susceptibility assay; type: cell-based, Helicobacter pylori; settings: 72 h; for Inhibition zone diameter (score): 100 and 200 mg/disc (so in the source)
Procedure, shortened: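 Clinical strains HP001, HP002 and ATCC 700392, 43504, 49503 (10^8 CFU/mL) spread on supplemented BHI agar; 5 mm discs loaded with 100 and 200 […] compound in ethanol or DMSO. Zones read after 72 h microaerophilic growth at 37 °C; scored + (10-20 mm), ++ (20-30 mm), +++ (>30 mm), Nil <10 mm.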

H. pylori [2] = test: as above; type: cell-based, Helicobacter pylori; parameters: key: strongly active (3^+, diameter>30 mm); intermediate active (2^+, ˜20-30 mm diameter); moderately active (1^+, ˜10-20 mm diameter); not active (<10 mm diameter); settings: two doses, majority of the strains
Experimental: (§1) The discs were impregnated with […] of each of the compounds, dissolved either in ethanol or DMSO, and the zone of inhibition was measured after 72 h of growth under microaerophilic conditions at 37° C. Inhibition zone diameter ranging 10-20 mm was given a score of ^+, 20-30 mm as ^++ and that of >30 mm as ^+++, as obtained employing dose range of […]/disc. The detailed structural information of the molecules is provided under ‘Description of the Compounds’.
(§2) Methods and protocols for the determination of inhibition zone diameter are as stated under Experiment 1, and that of MIC values by microbroth dilution assay as in Experiment 3. ‘Nil’ means zone of inhibition below 10 mm.
(§3) The anti H. pylori activity of all 16 flavonoid molecules, 2 naturally isolated and 14 synthetic derivatives, was screened by disc diffusion sensitivity assay employing 2 clinical strains HP001 and HP002, and three standard strains ATCC® 700392, 43504 and 49503. A 0.5 mL inoculum (10^8 CFU/mL) for each bacterial strain tested was flooded on freshly prepared Brain Heart Infusion (BHI) agar plates supplemented with 7% FCS, 0.5% IsoVitalex and 0.0025% DENT® and the discs (5 mm diameter) containing different compounds or antibiotics (dissolved either in ethanol or DMSO) were placed on the agar surface. After incubation for 3 days in a microaerophilic atmosphere at 37° C., the diameter of the zone of inhibition was measured (Glupczynsky, 1996; McNulty et al., 2002).

H. pylori [3] = test: as above; type: cell-based, Helicobacter pylori; parameters: key: strongly active (diameter>30 mm) and were given a score of 3^+; intermediate active (^˜20-30 mm diameter) and were given a score of 2^+; moderately active (^˜10-20 min diameter) and were given a score of 1^+; not active (>10 mm diameter); settings: 100 and 200 μg/disc, majority of the strains
Experimental: as §1, §2, §3

[4] = target: T1, pig gastric H^+,K^+-ATPase (Sus scrofa, UniProt P19156); test: Gastric H+,K+-ATPase activity assay; type: biochemical
T1 construct: tubulovesicular and apical membranes, isolated from freshly slaughtered pig gastric mucosa; from tissue; host or cells: pig gastric mucosa (membrane fraction by density gradient centrifugation)
T1 sequence (P19156 2-1034 limits assumed): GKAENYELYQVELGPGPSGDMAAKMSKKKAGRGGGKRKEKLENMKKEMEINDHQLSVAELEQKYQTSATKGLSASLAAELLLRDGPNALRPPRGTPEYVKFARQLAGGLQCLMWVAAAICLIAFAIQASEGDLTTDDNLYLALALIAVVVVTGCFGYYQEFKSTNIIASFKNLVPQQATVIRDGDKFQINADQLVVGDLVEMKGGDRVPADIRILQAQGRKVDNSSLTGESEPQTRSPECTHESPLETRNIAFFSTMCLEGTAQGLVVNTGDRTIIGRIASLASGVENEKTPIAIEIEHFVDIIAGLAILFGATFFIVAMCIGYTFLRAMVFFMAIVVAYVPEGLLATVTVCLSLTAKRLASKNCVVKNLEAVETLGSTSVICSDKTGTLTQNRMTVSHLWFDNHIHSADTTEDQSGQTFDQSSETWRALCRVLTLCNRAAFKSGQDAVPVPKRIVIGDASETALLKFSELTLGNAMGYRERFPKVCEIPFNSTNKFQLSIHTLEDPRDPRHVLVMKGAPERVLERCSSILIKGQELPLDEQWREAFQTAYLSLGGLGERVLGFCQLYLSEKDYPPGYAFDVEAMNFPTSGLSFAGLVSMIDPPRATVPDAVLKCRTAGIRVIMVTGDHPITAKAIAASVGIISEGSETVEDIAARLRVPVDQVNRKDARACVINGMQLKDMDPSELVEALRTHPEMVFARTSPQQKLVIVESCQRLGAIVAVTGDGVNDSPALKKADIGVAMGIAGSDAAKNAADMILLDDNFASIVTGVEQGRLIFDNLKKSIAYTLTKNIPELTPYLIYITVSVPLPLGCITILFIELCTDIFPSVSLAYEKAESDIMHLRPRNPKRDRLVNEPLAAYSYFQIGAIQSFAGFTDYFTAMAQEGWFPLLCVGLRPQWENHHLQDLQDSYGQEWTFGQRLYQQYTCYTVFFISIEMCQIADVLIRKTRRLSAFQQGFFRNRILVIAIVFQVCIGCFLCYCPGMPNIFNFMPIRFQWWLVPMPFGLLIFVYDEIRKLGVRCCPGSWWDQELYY
T1 sequence (P18434 whole entry partner): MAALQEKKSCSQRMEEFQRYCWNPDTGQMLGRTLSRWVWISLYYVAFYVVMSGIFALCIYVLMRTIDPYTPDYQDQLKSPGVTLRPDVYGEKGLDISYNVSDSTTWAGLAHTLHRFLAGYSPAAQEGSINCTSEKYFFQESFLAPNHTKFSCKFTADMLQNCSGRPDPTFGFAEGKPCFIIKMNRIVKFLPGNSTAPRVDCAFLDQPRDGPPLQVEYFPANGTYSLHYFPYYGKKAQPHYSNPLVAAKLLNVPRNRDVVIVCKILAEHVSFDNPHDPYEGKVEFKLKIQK
Experimental: The data are averages of 3-4 determinations each carried out in triplicate. The assay system contained 10 mM PIPES-Tris (pH 6.8), 2 mM each of ATP and MgCl2 with or without 10 mM KCl and about […] in a final volume of 1 mL. Both blank and experimental tubes with or without CPP-1 at different concentrations were preincubated with otherwise complete assay mixture at 37° C. for 10 min before initiating the reaction with the substrate ATP. K^+-stimulated activity referred to as H^+,K^+-ATPase activity, was calculated as the difference between the activity in presence of Mg^2+ plus K^+ and the basal activity (Mg^2+-ATPase) in presence of Mg2^+ alone. The specific activity of H^+,K^+-ATPase in control sets was in the range of 40-50 μmole Pi/mg protein/h.
The effect of CPP-1 on gastric H^+K^+-ATPase was investigated. Isolation of pig gastric mucosal membranes, rich in H^+,K^+-ATPase activity, was carried out by density gradient centrifugation technique (Ray, 1978). The enzyme assay system contained 10 mM PIPES-Tris (pH 6.8), 2 mM each of ATP and MgCl with or without 10 mM KCl and about […] in a final volume of 1 mL. Both blank and experimental tubes with or without CPP-1 at different concentrations were preincubated with otherwise complete assay mixture at 37° C. for 10 min before initiating the reaction with the substrate ATP. After appropriate time of incubation with ATP at 37° C., the reaction was terminated with the addition of 1 mL of ice-cold TCA (14%, w/v). The liberated inorganic phosphate (Pi) was estimated essentially by the method of Sanui (1974). K^+-stimulated activity referred to as H^+,K^+-ATPase activity, was calculated as the difference between the activity in presence of Mg^2+ plus K^+ and the basal activity (Mg^2+-ATPase) in presence of Mg^2+ alone. The specific activity of H^+,K^+-ATPase was expressed as micromoles of Pi liberated per hour per milligram protein. The data are averages of 3-4 determinations each carried out in triplicate. The specific activity of H^+,K^+-ATPase in control sets was in the range of 40-50 μmole Pi/mg protein/h.

H. pylori [5] = test: MIC and MBC by microbroth dilution assay; type: cell-based, Helicobacter pylori; settings: Helicobacter pylori
Experimental: The compounds, serially diluted ([…]) in Muller Hinton broth containing 5% FCS, were incubated in 96-well microtitre plate containing fresh cultures of HP001 (˜5.5×10^6 CFU/mL) or ATCC® 43504 (2.65×10^6 CFU/ml) in a final volume of […]. After 72-h of incubation under microaerophilic condition at 37° C., […] of cultures wherein no growth had been detected were streaked on fresh brain heart infusion agar plates for MBC determination.
In microbroth dilution assay employing one clinical and one standard strain, both the bacteriostatic and the bactericidal values were determined for all four compounds as well as for clarithromycin (Table 4). Two-fold serial dilutions were prepared in 96-well microtitre plate containing a total volume of 0.1 mL Mueller Hinton broth supplemented with 5% FCS. A 3-day old liquid culture was diluted 10 times in Mueller Hinton broth and 0.1 mL of these cultures was inoculated into each well to give a final concentration of ˜10^6 CFU/mL. The plates were incubated for 3 days in a microaerophilic atmosphere at 37° C. Following incubation, the plates were examined visually, and the lowest concentration showing complete inhibition of growth was recorded as the MIC of the respective compound (Hachem et al., 1996). Aliquots (0.1 mL) of 72-h culture in which no growth had been detected were taken from the wells of the above microtitre plates and used to streak on fresh BHI agar plates.

H. pylori [6] = test: Time kill kinetic analyses in biphasic culture; type: cell-based, Helicobacter pylori
H. pylori [7] = test: Anti H. pylori spectrum (MIC) by agar dilution method; type: cell-based, Helicobacter pylori; settings: Helicobacter pylori; for MIC50: MIC against 50% of the strains of the panel, read-out: MIC50
Procedure, shortened: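 Agar dilution per CLSI against six clinical isolates and four standard strains on BHI agar with 7% FCS, 0.5% IsoVitalex and DENT. Inoculum ~10^8 CFU/mL; 2-fold compound dilutions from 1.56-100; 72 h microaerophilic at 37 °C. MIC read visually as no growth, in duplicate; MIC50 covers 50% of strains.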

H. pylori [8] = test: Acid stability study (pH ~2.0, 2 h, then MIC/MBC by microbroth dilution); type: cell-based, Helicobacter pylori; settings: Helicobacter pylori
Experimental: Details of experimental protocol are described under Experiment 7. MIC/MBC values were determined by microbroth dilution assay.
A 100 μL stock of CPP-1, NMC-1, NMC-2 and CPP-3 (1-2 mg/mL) was treated with 20-30 μL of 0.12 NHCl to bring the pH of the solution to ^˜2.0, and kept at 25° C. for 2 h (Funatogawa et al., 2004). Such acid-treated samples were then serially diluted (2 fold) with medium in 96-well microtitre plates to determine the MIC and the MBC values by microbroth dilution assay as detailed under Experiment 3.

[9] = ATCC43504, microbroth dilution, ATCC 43504

CCCCCCCCCCCCCCCCC(=O)Oc1cc2oc(-c3ccccc3)cc(=O)c2c(O)c1OC [ORC-16, Heptadecanoic acid 5-hydroxy-6-methoxy-4-oxo-2-phenyl-4H-chromen-7-yl ester]
Inhibition zone diameter (score) (H. pylori [1]; ATCC standard strain 43504): Nil (‘Nil’ means zone of inhibition below 10 mm)
Inhibition zone diameter (score) (H. pylori [1]; ATCC standard strain 49503): Nil (‘Nil’ means zone of inhibition below 10 mm)
Inhibition zone diameter (score) (H. pylori [1]; ATCC standard strain 700392): Nil (‘Nil’ means zone of inhibition below 10 mm)
Inhibition zone diameter (score) (H. pylori [1]; clinical strain HP001): Nil (‘Nil’ means zone of inhibition below 10 mm)
Inhibition zone diameter (score) (H. pylori [1]; clinical strain HP002): Nil (‘Nil’ means zone of inhibition below 10 mm)
Activity class by inhibition zone diameter (H. pylori [2]): not active
Activity class by inhibition zone diameter (H. pylori [3]): not active

COc1ccc2[nH]c([S+]([O-])Cc3ncc(C)c(OC)c3C)nc2c1 (stereo not drawn) [Omeprazole, reference compound]
Percent inhibition of H^+, K^+-ATPase activity ([4]; 1 mg/assay (so in the source)): 20%
Percent inhibition of H^+, K^+-ATPase activity ([4]; 10 mg/assay (so in the source)): about 80%
inhibition of H^+,K^+-ATPase ([4]; dose range of 1-10 μg/assay): 20-80%

O=c1cc(-c2ccccc2)oc2cc(OCCCCN3CCCCC3)cc(O)c12 [CPP-3, 5-Hydroxy-2-phenyl-7-(4-piperidin-1-yl-butoxy)-chromen-4-one]
MBC (H. pylori [5]; [9]): 25 µg/mL (≈ 63.5 µM)
MIC (H. pylori [5]; [9]): 12.5 µg/mL (≈ 31.8 µM)
MBC (H. pylori [5]; microbroth dilution, HP001): 25 µg/mL (≈ 63.5 µM)
MIC (H. pylori [5]; microbroth dilution, HP001): 12.5 µg/mL (≈ 31.8 µM)
time to kill the bacteria totally (H. pylori [6]; ATCC 43504, 50 μg/mL): about 12 h
time to complete killing (H. pylori [6]; ATCC 43504, 2×MIC (clarithromycin 0.08, CPP-1 and NMC-1 12.5, NMC-2 and CPP-3 25 μg/mL)): about 12 h
killing at MIC dose (H. pylori [6]; ATCC 43504, MIC ([…])): no killing potency
killing at MIC dose (1×MIC) (H. pylori [6]; HP001, up to 36 h): could not exert any effect on bactericidal activity
Inhibition zone diameter (score) (H. pylori [1]; ATCC standard strain 43504): ++ (20-30 mm as ^++)
Inhibition zone diameter (score) (H. pylori [1]; ATCC standard strain 49503): ++ (20-30 mm as ^++)
Inhibition zone diameter (score) (H. pylori [1]; ATCC standard strain 700392): ++ (20-30 mm as ^++)
zone of inhibition at 100 µg/disc (H. pylori [1]; Helicobacter pylori, 100 and 200 μg/disc, majority of the strains, read-out: Activity class by inhibition zone diameter): > 30 mm
Inhibition zone diameter (score) (H. pylori [1]; clinical strain HP001): ++ (20-30 mm as ^++)
Inhibition zone diameter (score) (H. pylori [1]; clinical strain HP002): +++ (that of >30 mm as ^+++)
MIC50 (H. pylori [7]; 72 h): ~12.5 µg/mL (≈ 31.8 µM)
MIC (H. pylori [7]; 72 h, panel of 6 clinical isolates and 4 standard strains, read-out: MIC Range): 6.25 to 100 µg/mL (≈ 15.9 to 254 µM)
MIC50 (H. pylori [7]): 12.5 µg/mL (≈ 31.8 µM)
MIC (H. pylori [7]; clinical strain HP001, read-out: MIC): 25 µg/mL (≈ 63.5 µM)
MIC (H. pylori [7]; clinical strain HP002, read-out: MIC): 25 µg/mL (≈ 63.5 µM)
MIC (H. pylori [7]; clinical strain HP003, read-out: MIC): < 12.5 µg/mL
MIC (H. pylori [7]; clinical strain HP004, read-out: MIC): < 12.5 µg/mL
MIC (H. pylori [7]; clinical strain HP005, read-out: MIC): < 12.5 µg/mL
MIC (H. pylori [7]; clinical strain HP006, read-out: MIC): < 12.5 µg/mL
MIC (H. pylori [7]; standard strain 43504, read-out: MIC): 12.5 µg/mL (≈ 31.8 µM)
MIC (H. pylori [7]; standard strain 43629, read-out: MIC): 100 µg/mL (≈ 254 µM)
MIC (H. pylori [7]; standard strain 49503, read-out: MIC): 25 µg/mL (≈ 63.5 µM)
MIC (H. pylori [7]; standard strain 700392, read-out: MIC): 25 µg/mL (≈ 63.5 µM)
MBC (H. pylori [8]; 2 h, pH ~2.0, 2 h, 25° C., 43504, read-out: MBC, Acid treated): < 50000 µg/mL
MIC (H. pylori [8]; 2 h, pH ~2.0, 2 h, 25° C., 43504, read-out: MIC, Acid treated): 50000 µg/mL (≈ 127000 µM)
MBC (H. pylori [8]; 2 h, pH ~2.0, 2 h, 25° C., HP001, read-out: MBC, Acid treated): 50000 µg/mL (≈ 127000 µM)
MIC (H. pylori [8]; 2 h, pH ~2.0, 2 h, 25° C., HP001, read-out: MIC, Acid treated): 25000 µg/mL (≈ 63500 µM)
MBC (H. pylori [8]; not acid treated, 43504, read-out: MBC, Control): 25000 µg/mL (≈ 63500 µM)
MIC (H. pylori [8]; not acid treated, 43504, read-out: MIC, Control): 12500 µg/mL (≈ 31800 µM)
MBC (H. pylori [8]; not acid treated, HP001, read-out: MBC, Control): 25000 µg/mL (≈ 63500 µM)
MIC (H. pylori [8]; not acid treated, HP001, read-out: MIC, Control): 12500 µg/mL (≈ 31800 µM)
